{"source": "ChEMBL document CHEMBL1153786", "about": "“Cardenolide glycosides of Thevetia peruviana and triterpenoid saponins of Sapindus emarginatus as TRAIL resistance-overcoming compounds” (2009)", "assay_type_in_all_cases": "functional", "key": {"[1]": {"tested_on": "AGS", "test": "Cytotoxicity against human TRAIL-resistant AGS cells after 24 hrs by FMCA in presence of TRAIL"}, "[2]": {"tested_on": "AGS", "test": "Cytotoxicity against human TRAIL-resistant AGS cells at 27.1 nM after 24 hrs by FMCA in presence of TRAIL"}, "[3]": {"tested_on": "AGS", "test": "Cytotoxicity against human TRAIL-resistant AGS cells at 29.2 nM after 24 hrs by FMCA in presence of TRAIL"}, "[4]": {"tested_on": "AGS", "test": "Cytotoxicity against human TRAIL-resistant AGS cells at 29.2 nM after 24 hrs by FMCA in absence of TRAIL"}, "[5]": {"tested_on": "AGS", "test": "Cytotoxicity against human TRAIL-resistant AGS cells at 125 nM after 24 hrs by FMCA in presence of TRAIL"}, "[6]": {"tested_on": "AGS", "test": "Cytotoxicity against human TRAIL-resistant AGS cells at 125 nM after 24 hrs by FMCA in absence of TRAIL"}, "[7]": {"tested_on": "AGS", "test": "Induction of DR4 mRNA expression in human TRAIL-resistant AGS cells at 125 nM by reat-time RT-PCR analysis relative to GADPH"}, "[8]": {"tested_on": "AGS", "test": "Induction of DR4 mRNA expression in human TRAIL-resistant AGS cells at 250 nM by reat-time RT-PCR analysis relative to GADPH"}, "[9]": {"tested_on": "AGS", "test": "Induction of DR4 mRNA expression in human TRAIL-resistant AGS cells at 500 nM by reat-time RT-PCR analysis relative to GADPH"}, "[10]": {"tested_on": "AGS", "test": "Induction of DR5 mRNA expression in human TRAIL-resistant AGS cells at 125 nM by reat-time RT-PCR analysis relative to GADPH"}, "[11]": {"tested_on": "AGS", "test": "Induction of DR5 mRNA expression in human TRAIL-resistant AGS cells at 250 nM by reat-time RT-PCR analysis relative to GADPH"}, "[12]": {"tested_on": "AGS", "test": "Induction of DR5 mRNA expression in human TRAIL-resistant AGS cells at 500 nM by reat-time RT-PCR analysis relative to GADPH"}}, "note": "Calls of active or inactive are those of the source. The calls are words filed in the database; no cut-off is given here."}
{"smiles": "CC(=O)O[C@H]1[C@H](O[C@@H]2[C@@H](O)[C@H](C)O[C@@H](O[C@H]3[C@H](O[C@H]4CC[C@@]5(C)[C@@H](CC[C@]6(C)[C@@H]5CC=C5[C@@H]7CC(C)(C)CCC7(C(=O)O)CC[C@]56C)[C@]4(C)CO)OC[C@H](O)[C@@H]3O)[C@@H]2O)OC[C@@H](O)[C@@H]1O", "note": "(stereo partly specified)", "values": [{"measurement": "Activity", "setting": "[1]", "value": "Active"}, {"measurement": "Activity", "setting": "[2]", "value": 45, "unit": "%"}]}
{"smiles": "CC(=O)O[C@@H]1CO[C@@H](O[C@@H]2[C@@H](O)[C@H](C)O[C@@H](O[C@H]3[C@H](O[C@H]4CC[C@@]5(C)[C@@H](CC[C@]6(C)[C@@H]5CC=C5[C@@H]7CC(C)(C)CCC7(C(=O)O)CC[C@]56C)[C@]4(C)CO)OC[C@H](O)[C@@H]3O)[C@@H]2O)[C@H](O)[C@H]1O", "note": "(stereo partly specified)", "values": [{"measurement": "Activity", "setting": "[1]", "value": "Active"}]}
{"smiles": "CC(=O)O[C@@H]1[C@@H](O)[C@H](O[C@@H]2[C@@H](O)[C@H](C)O[C@@H](O[C@H]3[C@H](O[C@H]4CC[C@@]5(C)[C@@H](CC[C@]6(C)[C@@H]5CC=C5[C@@H]7CC(C)(C)CCC7(C(=O)O)CC[C@]56C)[C@]4(C)CO)OC[C@H](O)[C@@H]3O)[C@@H]2O)OC[C@H]1OC(C)=O", "note": "(stereo partly specified)", "values": [{"measurement": "Activity", "setting": "[1]", "value": "Active"}]}
{"smiles": "CC(=O)O[C@H]1[C@H](O[C@@H]2[C@@H](O)[C@H](C)O[C@@H](O[C@H]3[C@H](O[C@H]4CC[C@@]5(C)[C@@H](CC[C@]6(C)[C@@H]5CC=C5[C@@H]7CC(C)(C)CCC7(C(=O)O)CC[C@]56C)[C@]4(C)CO)OC[C@H](O)[C@@H]3O)[C@@H]2O)OC[C@@H](OC(C)=O)[C@@H]1O", "note": "(stereo partly specified)", "values": [{"measurement": "Activity", "setting": "[1]", "value": "Active"}]}
{"smiles": "O=c1cc(-c2ccc(O)c(O)c2)oc2cc(O)cc(O)c12", "note": "[LUTEOLIN]", "values": [{"measurement": "Activity", "setting": "[1]", "value": 70, "unit": "%"}]}
{"smiles": "CO[C@H]1[C@H](O)[C@H](O[C@H]2CC[C@@]3(C)[C@H](CC[C@@H]4[C@@H]3CC[C@]3(C)[C@@H](C5=CC(=O)OC5)CC[C@]43O)C2)O[C@@H](C)[C@@H]1O", "note": "[NERIIFOLIN]", "values": [{"measurement": "Activity", "setting": "[3]", "value": 36, "unit": "%"}, {"measurement": "Activity", "setting": "[4]", "value": 79, "unit": "%"}]}
{"smiles": "CO[C@H]1[C@H](O)[C@H](O[C@H]2CC[C@@]3(C)[C@@H](CC[C@@H]4[C@@H]3CC[C@]3(C)[C@@H](C5=CC(=O)OC5)CC[C@]43O)C2)O[C@@H](C)[C@@H]1O", "note": "[THEVEFOLIN]", "values": [{"measurement": "Activity", "setting": "[5]", "value": 46, "unit": "%"}, {"measurement": "Activity", "setting": "[6]", "value": 65, "unit": "%"}, {"measurement": "fold change (FC)", "setting": "[7]", "value": 1.8}, {"measurement": "fold change (FC)", "setting": "[8]", "value": 3.3}, {"measurement": "fold change (FC)", "setting": "[9]", "value": 3.6}, {"measurement": "fold change (FC)", "setting": "[10]", "value": 1.2}, {"measurement": "fold change (FC)", "setting": "[11]", "value": 1.6}, {"measurement": "fold change (FC)", "setting": "[12]", "value": 1.8}]}
